In patent US7998990B2, “5-phenyl-thiazol-2-yl-urea derivatives and use as PI3 kinase inhibitors” (Novartis AG, priority 2006, dated 2011):

Biological target: T1, phosphatidylinositol 3-kinase gamma isoform (p110?), recombinant GST-p110? (Homo sapiens, UniProt P48736)
T1 construct: made in house; host or cells: Sf9 (Spodoptera frugiperda) insect cells, baculovirus
Assay: PI3K gamma in vitro kinase assay (Scintillation Proximity Assay, phosphate transfer from ATP to phosphatidylinositol)
Type: biochemical
Details: for IC50: gamma isoform, fluorinated Example compound
Source text: Compounds of formula I and their pharmaceutically acceptable salts, hereinafter referred to alternatively as agents of the invention, are useful as pharmaceuticals.
Baculovirus expressing different fragments of PI3K? fused to GST have been previously described by Stoyanova, S., Bulgarelli-Leva, G., Kirsch, C., Hanck, T., Klinger, R., Wetzker, R., Wymann, M. P. (1997) Lipid- and protein kinase activities of G protein-coupled PI 3-kinase g: structure-activity analysis and interactions with wortmannin. Biochem. J., 324:489. Residues 38-1102 of human PI3K? are subcloned into the BamH1 and EcoR1 sites of the transfer vector pAcG2T (Pharmingen) to create a GST-PI3K? lacking the first 37 residues of PI3K?. To express the recombinant protein, Sf9 (Spodoptera frugiperda 9) insect cells are routinely maintained at densities between 3×10^5 and 3×10^6 cells/ml in serum containing TNMFH medium (Sigma). Sf9 cells, at a density of 2×10^6 are infected with human GST-PI3K[…] 34 baculovirus at a multiplicity of infection (m.o.i.) of 1 for 72 hours. The infected cells are harvested by centrifugation at 1400 g for 4 minutes at 4° C. and the cell pellets are frozen at −80° C. Both Sf9 and Sf21 cells work equally well. Sf9 cells (1×10^9) are resuspended in 100 ml cold (4° C.) lysis buffer (50 mM Tris-HCl pH 7.5, 1% Triton X-100, 150 mM NaCl, 1 mM NaF, 2 mM DTT and protease inhibitors. Cells are incubated on ice for 30 minutes then centrifuged at 15000 g for 20 minutes at 4° C. Purification of the supernatant sample is carried out at 4° C. by affinity chromatography using SEPHAROSE™ agarose gel beads coupled to glutathione (from Amersham Pharmacia Biotech). A cell lysate/GST resin ratio of 50:1 is used. The GST resin is firstly pre-rinsed to remove ethanol preservative and then equilibrated with lysis buffer. Cell lysate (supernatant) is added (usually as 50 ml lysate to 1 ml GST resin in 50 ml tubes) and gently rotated on a mixer at 4° C. for 2-3 hours. The unbound flow through sample is collected by centrifugation at 1000 g for 5 minutes at 4° C. using a DENLEY™ centrifuge. The 1 ml GST resin containing bound material is transferred to a 15 ml FALCON™ centrifuge tube for subsequent washing and elution steps. Firstly a series of 3 cycles of washings (mixing by gentle inversion) is performed with 15 ml ice cold wash Buffer A (50 mM Tris-HCl pH 7.5, 1% Triton X-100, 2 mM DTT) interspersed with centrifugation at 1000 g for 5 minutes at 4° C. A final single wash step is performed with 15 ml ice cold wash Buffer B (50 mM Tris-HCl pH 7.5, 2 mM DTT) and then centrifuged at 1000 g for 5 minutes at 4° C. The washed GST resin is finally eluted with 4 cycles of 1 ml ice cold elution buffer (50 mM Tris-HCl pH 7.5, 10 mM reduced glutathione, 2 mM DTT, 150 mM NaCl, 1 mM NaF, 50% ethylene glycol and protease inhibitors) interspersed with centrifugation at 1000 g for 5 minutes at 4° C. Samples are aliquoted and stored at −20° C.
An in vitro kinase assay was established that measures the transfer of the terminal phosphate of adenosine triphosphate to phosphatidylinositol. The kinase reaction is performed in a white 96 well microtitre plate as a Scintillation Proximity Assay. Each well contains 10 μl test compound in 5% dimethylsulphoxide and 20 μl assay mix (40 mM Tris, 200 mM NaCl, 2 mM ethyleneglycol-aminoethyl-tetraacetic acid (EGTA), 15 μg/ml phosphatidylinositol, 12.5 μM adenosine triphosphate (ATP), 25 mM MgCl2, 0.1 μCi [^33P]ATP). […]

T1 sequence (P48736 38-1102): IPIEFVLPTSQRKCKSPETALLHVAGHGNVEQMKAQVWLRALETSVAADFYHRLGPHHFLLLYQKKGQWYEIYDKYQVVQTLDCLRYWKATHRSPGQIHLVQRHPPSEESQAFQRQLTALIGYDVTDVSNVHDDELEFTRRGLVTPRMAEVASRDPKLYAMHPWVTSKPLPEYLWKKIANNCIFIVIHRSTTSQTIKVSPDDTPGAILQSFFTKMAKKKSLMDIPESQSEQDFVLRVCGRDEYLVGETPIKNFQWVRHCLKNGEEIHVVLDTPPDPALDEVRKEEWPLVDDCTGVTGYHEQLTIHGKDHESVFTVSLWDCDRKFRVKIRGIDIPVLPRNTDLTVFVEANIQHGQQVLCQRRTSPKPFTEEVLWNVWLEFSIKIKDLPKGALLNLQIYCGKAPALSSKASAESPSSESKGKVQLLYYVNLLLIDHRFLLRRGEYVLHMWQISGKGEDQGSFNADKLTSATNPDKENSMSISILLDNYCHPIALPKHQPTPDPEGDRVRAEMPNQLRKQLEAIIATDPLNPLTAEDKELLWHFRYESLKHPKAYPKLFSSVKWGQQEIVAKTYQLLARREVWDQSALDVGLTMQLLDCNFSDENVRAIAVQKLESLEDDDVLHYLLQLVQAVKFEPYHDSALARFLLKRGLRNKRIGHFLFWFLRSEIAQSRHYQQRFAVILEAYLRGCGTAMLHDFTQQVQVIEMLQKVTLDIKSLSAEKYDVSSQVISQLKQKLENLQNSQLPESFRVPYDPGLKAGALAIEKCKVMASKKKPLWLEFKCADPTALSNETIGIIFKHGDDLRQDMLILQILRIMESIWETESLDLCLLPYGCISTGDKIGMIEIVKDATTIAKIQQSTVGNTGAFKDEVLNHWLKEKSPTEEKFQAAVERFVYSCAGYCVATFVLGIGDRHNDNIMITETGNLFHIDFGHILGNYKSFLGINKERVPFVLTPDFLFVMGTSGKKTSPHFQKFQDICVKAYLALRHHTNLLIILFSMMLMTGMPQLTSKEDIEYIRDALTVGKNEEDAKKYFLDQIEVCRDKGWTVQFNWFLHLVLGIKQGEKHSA

Row | IC50 [µM] | increase in activity over the corresponding compound described in WO0521519 (fold, from IC50 (?) values of the table) | Molecule
1 | 0.028 |  | Cc1nc(NC(=O)NCCC(=O)NCC(F)F)sc1-c1ccc(S(C)(=O)=O)c(F)c1 [compound 2, N-(2,2-Difluoroethyl)-3-{3-[5-(3-fluoro-4-methanesulfonyl-phenyl)-4-methyl-thiazol-2-yl]-ureido}-propionamide]
2 | 0.028 |  | Cc1nc(NC(=O)NCCc2cn(CCF)cn2)sc1-c1ccc(S(C)(=O)=O)c(F)c1 [compound 7, 1-{2-[1-(2-Fluoro-ethyl)-1H-imidazol-4-yl]-ethyl}-3-[5-(3-fluoro-4-methanesulfonyl-phenyl)-4-methyl-thiazol-2-yl]-urea]
3 | 0.01 | four-fold | Cc1nc(NC(=O)NCCc2nnn(CCF)n2)sc1-c1ccc(S(C)(=O)=O)c(F)c1 [compound 8, 1-{2-[2-(2-Fluoro-ethyl)-2H-tetrazol-5-yl]-ethyl}-3-[5-(3-fluoro-4-methanesulfonyl-phenyl)-4-methyl-thiazol-2-yl]-urea]

Row | Molecule | IC50 [µM] | increase in activity over the corresponding compound described in WO0521519 (fold, from IC50 (?) values of the table)
4 | N-(2-Fluoro-1,1-dimethyl-ethyl-3-{3-[5-(3-fluoro-4-methanesulfonyl-phenyl)-4-methyl-thiazol-2-yl]-ureido}-propionamide [compound 1] | 0.046 | 
